According to patent US10457639B2, “Fluorescent regulators of RASSF1A expression and human cancer cell proliferation” (GEORGETOWN UNIVERSITY, priority 2008, dated 2019):
Where two headings read alike, the source gives them in different places.

Tests used:
PC3 cells = assay: Cell growth assay, trypan blue dye exclusion count; assay type: cell-based
Protocol: Cell Line and Cell Growth Assay. Human prostate cancer cell line PC-3 was procured from the American Type Cell Culture Collection (Manassas, Va.). Cells were grown in IMEM without phenol red (Invitrogen, Carlsbad, Calif.) with 10% fetal bovine serum, 2 mM glutamine, 100 U/mL penicillin G sodium, and 100 μg/mL streptomycin sulfate (Sigma, St. Louis, Mo.) in the presence of 5% CO2 at 37° C. For the cell growth experiment, PC-3 cells were seeded in 6-well plates in triplicate with an initial density of 2×10^3 cells per well. Twenty-four hours after seeding, the attached cells were treated with vehicle (DMSO) or 1, 5, 15, 30 and 60 μM compound. After another twenty-four hours, the cells were washed with 1×PBS, trypsinized and re-suspended in complete growth medium. Trypan blue (0.4%) was added to the cell suspension and both live and dead cells were counted using a hemocytometer.
Compounds 6-10 were screened for growth inhibition in PC-3 human prostate cancer cells using previously reported methods (Table 1; Sinha et al. The Prostate. 2006, 66, 1257-1265). […] This was unexpected, since the methyl moiety of mahanine is in the 3-position. Compound 9, with its GI50 value near that of the compound 6 series (compounds 6, 6a, 8) and a deprotected hydroxyl group in the 2-position, implies that whatever hindrance is imposed by a methyl in the 3-position can be partially overcome if steric bulk at the 2-position is reduced. Indeed, looking at the structure of mahanine, the restraint of the ether cycle may provide enough reduction of apparent bulk at the 2-position to moderate its methyl in the 3-position. Additionally, the ether ring system puts the equivalent of a methyl group in the 1-position, which could also be aiding in the low μM activity of mahanine, if the relatively lower values for the compound 6 series are any indication. Moreover, analyzing the structure of compound 10 based on the same criteria, the double-bonded carbon of the ether cycle in the 3-position along with bulk off the 2-position might explain its lesser growth inhibition when compared to mahanine, while the methyl in the 1-position still gives it better activity than compounds 7 and 7a.

[1] = test system: DNA methyltransferase (DNMT); assay: DNA methyltransferase activity assay (EpiQuik kit, nuclear extracts of treated PC-3 cells); assay type: cell-based, human; conditions: 72 hours
Protocol: Black bars: PC-3 cells were treated 72 hours with either mahanine or compound 6a at 5 μM or compound 6, 7, 7a, 8, or 9 at 15 μM and then assayed for DNMT activity using the DNMT activity kit from Epigentek. Data are mean of three independent experiments ±SEM. Grey bars: Densitometry from RT-PCR blot where the amount of RASSF1A mRNA re-expressed by mahanine treatment is normalized to 100%.
DNA methyltransferase activity assay. PC-3 cells were plated in complete growth media, treated with either mahanine or compound 6a at 2 μM or compound 6, 7, 7a, 8, 9, 10 at 15 μM for 3 days and then harvested. Nuclear extracts were prepared according to manufacturer's protocol (Nuclear extraction kit, Epigentek). DNMT activity was measured using an EpiQuik DNA methyltransferase activity assay kit (Epigentek). Results were expressed as percent DNMT activity compared to the DMSO control as 100%.
The levels of DNMT activity in treated versus untreated prostate cancer cells were measured using a DNMT assay kit from Epigentek. […] These reduced DNMT activities correlate with the pattern of RASSF1A induction described above (FIG. 7, grey bars). The data imply that inhibition of DNMT prevents hypermethylation of the RASSF1A promoter region and consequently restores RASSF1A.

PC-3 cells = assay: BrdU labeling, DNA synthesis (Cell Proliferation ELISA BrdU); assay type: cell-based, human; conditions: 5 μM compound, 24 hours
Protocol: PC-3 cells were plated in 96-well plates and treated with 5 μM of compound. After 24 hours, the cells were assayed for BrdU labeling using the Cell Proliferation ELISA BrdU kit from Roche; background BrdU incorporation levels (absent anti-BrdU-peroxidase solution) were subtracted and values were normalized to those of control untreated cells.
BrdU Labeling. For the BrdU experiment, PC-3 cells were seeded in 96-well plates at a density of 2×10^3 cells/well, treated with 5 μM of compound for 24 hr and assayed BrdU using the Cell Proliferation ELISA BrdU (chemiluminescence) (Roche Diagnostics, IN) kit according to the manufacturer's protocol. Briefly, 10 μL of 100 μM BrdU labeling solution was added to the cultured cells and were incubated for 1 hr at 37° C., the labeling solution was removed and the FixDenat solution provided with the kit was added for 30 min and incubated at room temperature. Cells were then incubated with anti-BrdU conjugated to peroxidase (1:1500) for 60 min. Finally, the plates were washed and 100 μL of substrate solution was added to each well, and the light emission was measured using a microplate luminometer (Harta Instruments, Inc., Gaithersburg, Md.).
To assess the levels of DNA synthesis within cells treated with mahanine compared to those treated with compounds 6-10, cultured cells were treated according to standard procedure with 5-bromo-2-deoxy-uridine (BrdU) after 24 hours of treatment (FIG. 2).

RASSF1A = assay: RT-PCR of RASSF1A mRNA in treated PC-3 cells; assay type: cell-based, human
Protocol: (§1) Representative photograph of an experiment repeated thrice. PC-3 cells were treated 24 hours with either 15 μM for compounds 6, 7, 7a, 8, 9, 10 or 5 μM for compound KED-4-69 (compound 6a) before RNA extraction and RT-PCR amplification.
(§2) Reverse Transcriptase-polymerase Chain Reaction (RT-PCR). From PC-3 cells incubated 24 hours with either 15 μM of compound 6, 7, 7a, 8, 9, 10 or 5 μM of KED-4-69 (compound 6a), RNA was extracted with TRIzol solution (Invitrogen, Carlsbad, Calif.) and genes of interest were amplified using 500 ng of total RNA reverse-transcribed to cDNA using a Superscript II kit (Invitrogen) with random hexamers. Human-specific primers were designed using the Primer Quest program and purchased from Integrated DNA Technologies, Inc. (Coralville, Iowa). Their sequences and product band sizes are: cyclin D1 forward primer 5′-[…]-3′ (SEQ ID NO:1), cyclin D1 reverse primer 5′-[…]-3′ (SEQ ID NO:2) (475 bp) and GAPDH forward primer: 5′-CCA […]-3′ (SEQ ID NO:3), GAPDH reverse primer: 5′-TCTAGACGGCAG GTCAGGTCCACC-3′ (SEQ ID NO:4) (598 bp). PCRs were initiated at 94° C. for 2 min, followed by 28 cycles of 94° C. for 1 min, 1 min annealing temperature, 72° C. for 1 min, and final extension at 72° C. for 5 min. The annealing temperature for cyclin D1 and GAPDH was 60° C. Primers and PCR conditions for RASSF1A are used as described by Rong et al. (Oncogene. 2004, 23, 8216-8230). After amplification, PCR products were separated on 1.5% agarose gels and visualized by ethidium bromide fluorescence using the Fuji LAS-1000 Imager. Images were captured and imported to Adobe Photoshop. Band intensities were quantified by using ImageJ software (NIH, Bethesda, Md.).
(§3) It has been reported that mRNA levels of RASSF1A correlate to its protein expression levels (Rong et al. Oncogene, 2004, 23: 8216-8230). To investigate the effects of the synthetic compounds on RASSF1A and cyclin D1 expression, levels of the respective mRNAs in treated cells compared to control were analyzed (FIG. 3). […] Because overexpression of cyclin D1 is associated with tumorigenicity and proliferation in a variety of tumors, including prostate cancers, this downregulation provides a cancer treatment method (Chen, Y. et al. Oncogene. 1998, 16, 1913-1920; Musgrove, E. A. et al. Proc. Natl. Acad. Sci. USA. 1994, 91, 8022-8026).

cyclin D1 = assay: RT-PCR of cyclin D1 mRNA in treated PC-3 cells; assay type: cell-based, human
Protocol: as §1, §2, §3

[2] = Homo sapiens, PC-3, concentration for 50% growth inhibition in PC3 cells, 24 hours of treatment, mean ± SEM of three observations, read-out: GI50
[3] = mahanine, concentration not given

Compound | GI50 (PC3 cells; [2]) | DNMT activity versus DMSO control ([1]; 15 μM) | DNA synthetic ability (BrdU labeling) (PC-3 cells) | RASSF1A mRNA level versus control (RASSF1A; 15 μM, 24 hours) | cyclin D1 mRNA level versus control (cyclin D1; 15 μM, 24 hours) | other results
COc1ccc2c(c1)[nH]c1c(C)c(OCc3ccccc3)ccc12 [Compound 6, 2-(Benzyloxy)-7-methoxy-1-methyl-9H-carbazole] | 17.6 ± 2.7 µM | Significant inhibition of DNMT activity | decrease in DNA synthetic ability | significant increase in RASSF1A | corresponding decrease in cyclin D1 | –
COc1ccc2c(c1)[nH]c1cc(OCc3ccccc3)c(C)cc12 [Compound 7, 2-(benzyloxy)-7-methoxy-3-methyl-9H-carbazole] | 48.9 ± 1.1 µM | – | – | no change in expression levels from control | no change in expression levels from control | –
COc1ccc2c(c1)[nH]c1cc(OS(=O)(=O)c3cccc4c(N(C)C)cccc34)c(C)cc12 [Compound 7a, 7-Methoxy-3-methyl-9H-carbazol-2-yl 5-(dimethylamino)naphthalene-1-sulfonate] | 22.9 ± 4.5 µM | – | – | no change in expression levels from control | no change in expression levels from control | –
COc1ccc2c(c1)[nH]c1c(C)c(O)ccc12 [Compound 8, 7-Methoxy-1-methyl-9H-carbazol-2-ol] | – | slight decrease in DNMT activity | no change in the DNA synthetic ability | – | – | GI50 (PC3 cells; Homo sapiens, PC-3, 24 h): 18.7 ± 1.8 µM
COc1ccc2c(c1)[nH]c1cc(O)c(C)cc12 [Compound 9, 7-Methoxy-3-methyl-9H-carbazol-2-ol] | 15.3 ± 2.8 µM | slight decrease in DNMT activity | decrease in DNA synthetic ability | – | – | –
mahanine [reference compound] | – | – | decrease in DNA synthetic ability | – | – | doses at which cytotoxic (PC3 cells; PC-3 cells): above 5 μM; GI50 (PC3 cells; concentration for 50% growth inhibition in PC3 cells, 24 hours of treatment, mean ± SEM of three observations, read-out: GI50): 2.5 ± 0.18 µM; DNMT activity versus DMSO control ([1]; 5 μM (FIG. 7 legend; method says 2 μM)): Significant inhibition of DNMT activity; RASSF1A mRNA level versus control (RASSF1A; [3]): significant increase in RASSF1A; cyclin D1 mRNA level versus control (cyclin D1; [3]): corresponding decrease in cyclin D1
